Tested on: CHIKV
Format: cell-based, chikungunya virus

Hs_NRD1_1 (CAGGGTGAAGCCACTTCATTA; chemistry not given here)
Score_si3: 1.32

Hs_NRD1_2 (AAGGCTTTCGATTGCCCGGAA; chemistry not given here)
Score_si2: 1.41

Hs_NRD1_3 (CAAGCAATACCGATACATCAA; chemistry not given here)
Score_si4: 0.87

Hs_NUDT1_4 (CCGGGTTTCATCTGGAATTAA; chemistry not given here)
Score_si2: 1.96

Hs_NUDT1_5 (CCGCGAGGTGGACACGGTCTA; chemistry not given here)
Score_si1: 2.08

Hs_ODZ3_1 (CCGGGCTGTGTCAAAGAATAA; chemistry not given here)
Score_si1: 1.47

Hs_ODZ3_2 (CCCAAATTTGATTTAACAGAA; chemistry not given here)
Score_si4: 0.82

Hs_ODZ3_4 (CACGAGGAAACTACAATTCCA; chemistry not given here)
Score_si3: 1

Hs_P4HB_2 (CTATTTCACAATCGAATTGAA; chemistry not given here)
Score_si3: 1.09

Hs_P4HB_5 (CAGGACGGTCATTGATTACAA; chemistry not given here)
Score_si2: 1.15

Hs_P4HB_6 (AAGATGAACTGTAATACGCAA; chemistry not given here)
Score_si1: 1.38

Hs_PCBP1_2 (TAAGAGTGGAATGTTAATAAA; chemistry not given here)
Score_si1: 1.94

Hs_PCBP1_3 (CACAACTTTATCATCCGCTAA; chemistry not given here)
Score_si2: 1.85

Hs_PCQAP_1 (CCGCATGATCAACAAGATCGA; chemistry not given here) [reference compound]
Score_si1: -1.12

Hs_PCQAP_10 (CAGCATCTAATTAAATTGCAT; chemistry not given here) [reference compound]
Score_si3: -0.74

Hs_PD2_1 (ACCGAGGAAGAAATATACAAA; chemistry not given here)
Score_si4: 1.16

Hs_PD2_2 (CACCATTATTGTGAGCAGCAA; chemistry not given here)
Score_si1: 1.77

Hs_PDLIM5_3 (AAGAGACGGTTTGGCATTTAT; chemistry not given here)
Score_si1: 1.17

Hs_PDLIM5_5 (CAGCAGGGAAACGAACTCCGA; chemistry not given here)
Score_si2: 1.07

Hs_PDLIM5_6 (TCCGATGTGCGCCCATTGTAA; chemistry not given here)
Score_si3: 0.87

Hs_PEX19_1 (ATGGGTGGCTTCATGAATTAA; chemistry not given here)
Score_si1: 1.26

Hs_PEX19_2 (TCCCTTGAGTATTTCAATGTA; chemistry not given here)
Score_si3: 0.58

Hs_PEX19_3 (CCCATTCAAGATTGTGCCATA; chemistry not given here)
Score_si4: 0.41

Hs_PEX19_4 (CTGGATCTTATGCAGCAGCTA; chemistry not given here)
Score_si2: 0.89

Hs_PGD_1 (TAGAAGTGTATTCCTAGGAAA; chemistry not given here)
Score_si1: 3.09

Hs_PHF10_3 (CGGACAGTTCCAGGAATATTA; chemistry not given here)
Score_si2: 0.88

Hs_PHF10_4 (TCCAGGGAAGACAGAAATCAA; chemistry not given here)
Score_si3: 0.57

Hs_PHF10_5 (ATGGCAGTGTATGGAATGTAA; chemistry not given here)
Score_si1: 2.93

Hs_PITRM1_1 (TAGGTTCTTCACGTACGGTAA; chemistry not given here) [reference compound]
Score_si1: -1.2

Hs_PITRM1_2 (CCGGTGAATTACGTGGGTGAA; chemistry not given here) [reference compound]
Score_si4: -0.68

Hs_PITRM1_3 (CAGCGTTGAAAGTTTCCGATA; chemistry not given here) [reference compound]
Score_si2: -1.16

Hs_PMPCB_4 (TACATTTATAATAGGAGTCCA; chemistry not given here)
Score_si4: 0.83

Hs_POLDIP3_2 (CCGGCTCAAACTGGGAGTCAA; chemistry not given here)
Score_si1: 2.49

Source: PMC4865845, “A human genome-wide loss-of-function screen identifies effective chikungunya antiviral drugs” (Nature Communications, 2016)
